According to patent US10865213B2, “Max binders as MYC modulators and uses thereof” (Massachusetts Institute of Technology, priority 2016, dated 2020):
Converted amounts (≈) assume the structure as drawn. Read-outs that look alike come from different tables or passages of the source. Values belong to the molecule of their own block, whether it stands above or below them.

Key:
[1] = tested on: P493-6 Myc ON cells; experiment: Cell viability, CELL TITER GLO, P493-6 Myc ON; format: cell-based, human
Source text: (§1) FIGS. 3A to 3B show exemplary results of an assay of cell viability and the selectivity of Compound 1 for cells expressing Myc and non-Myc expressing cells. Compound 1 affected cell viability after treatment with Compound 1 for 3 days, as measured using CELL TITER GLO (Promega) in a cancer cell line (P493-6, derived from human B-cells), where Myc is ON (FIG. 3A) or Myc is OFF (FIG. 3B). Results were expressed as a mean+/−SEM (n=3). RLU: Relative Luminescence Units.
(§2) The selectivity of Compound 1 for cells expressing Myc over non-Myc expressing cells in cancer cell line P493-6 (engineered cell line derived from human B-cells) was determined. Adding doxycycline to P493-6 growth media shuts off Myc transcription. Exemplary results are shown in FIGS. 3A to 3B, where cell viability was assessed by CELL TITER GLO assay (Promega). FIG. 3A depicts the assay results for cells expressing Myc, and FIG. 3B depicts the assay results for non-Myc expressing cells. […] The selectivity of other compounds described herein in cancer cell line cancer cell line P493-6 was also determined, and exemplary results are shown in Table 2, where viability was assessed by CELL TITER GLO assay (Promega).

[2] = tested on: P493-6 Myc OFF cells; experiment: Cell viability, CELL TITER GLO, P493-6 Myc OFF; format: cell-based, human
Source text: as §1, §2

[3] = tested on: c-Myc; experiment: c-Myc reporter gene assay (Qiagen), Firefly/Renilla ratio, HEK293T cells; format: cell-based
Method: The activity of Compound 1 against Myc was measured as a Firefly/Renilla ratio, using the Myc reporter assay (Qiagen) in HEK293T cells after treatment with Compound 1 for 16 hours. Results are expressed as a mean+/−SD (n=3). SD: standard deviation.
Select compounds described herein that were SMM assay positives were evaluated in several versions of a c-Myc reporter gene assay, including a commercial assay from Qiagen. The compounds' activities against c-Myc were measured as a Firefly/Renilla ratio, using the Myc reporter assay (Qiagen) in HEK293T cells after treatment with the compounds for 16 hours.

[4] = tested on: ST486, CA46, NCI-H1963, GBM4 cancer cell lines; experiment: Cell viability, CELL TITER GLO, cancer cell lines ST486, CA46, NCI-H1963, GBM4; format: cell-based; conditions: 3 days treatment (4 days GBM4)
Method: Compound 1 affected cell viability after treatment with Compound 1 for 3 days (and 4 days for GBM4 and NHA), as measured using CELL TITER GLO (Promega) in 4 different cancer cell lines: ST486 (Burkitt's lymphoma; FIG. 2), CA46 (Burkitt's lymphoma; FIG. 2), NCI-H1963 (small cell lung cancer; FIG. 2), and GBM4 (glioblastoma; FIG. 2). The cell viability of normal human astrocytes (NHA) was also assayed. Results were expressed as a mean+/−SEM (n=2). The effect of Compound 1 on cell viability in several cancer cell lines and normal human astrocytes (NHA) was determined. The cancer cell lines employed in the assay included those corresponding to Burkitt's lymphoma (ST486 and CA46), small cell lung cancer (NCI-H1963), and glioblastoma (GBM4). The cell viability of normal human astrocytes (NHA) was also assayed. Exemplary results are shown in FIG. 2, where viability was assessed by CELL TITER GLO assay (Promega). […] The effects of other compounds described herein on cell viability in several cancer cell lines were also determined, and exemplary results are shown in Table 2, where viability was assessed by CELL TITER GLO assay (Promega).

[5] = Aqueous solubility at 25° C.; format: physicochemical
[6] = Intrinsic clearance, liver microsomes; format: in vitro ADME; conditions: Intrinsic clearance (liver microsomes, human)
[7] = target: c-Myc/Max heterodimer (Homo sapiens, UniProt P61244); experiment: Electrophoretic mobility shift assay, c-Myc/Max heterodimer; format: binding
Chain of c-Myc/Max heterodimer (P61244 whole entry, one chain of several): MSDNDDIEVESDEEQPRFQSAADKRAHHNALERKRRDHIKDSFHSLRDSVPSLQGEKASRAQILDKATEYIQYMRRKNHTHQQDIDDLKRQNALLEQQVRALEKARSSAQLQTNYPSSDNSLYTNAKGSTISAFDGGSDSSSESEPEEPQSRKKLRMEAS
Source text: (§3) This leads to a hypothesize that KI-MS2-008 stabilizes the Max homodimer.

[8] = tested on: Myc transcript; experiment: qPCR of Myc transcript levels; format: cell-based
[9] = tested on: ST-486; experiment: Viability assay in ST-486; format: cell-based; conditions: Homo sapiens, ST486; ST-486, non-engineered cell line
[10] = target: T1, Max homodimer (Homo sapiens, UniProt P61244); experiment: EMSA with recombinant Max, homodimer binding to DNA
T1 sequence (P61244 whole entry): as the sequence (P61244 whole entry, one chain of several) above
Source text: as §3

[11] = tested on: P3HR1; experiment: Viability assay in P3HR1; format: cell-based; conditions: Homo sapiens, P3HR-1; P3HR1, non-engineered cell line
[12] = target: T1, Max homodimer; experiment: fPLC quantification of Max monomer vs. Max homodimer; format: binding; conditions: monomer vs. homodimer populations
Source text: as §3

[13] = tested on: Myc; experiment: Myc protein levels; format: cell-based; conditions: recovered by proteasome inhibition
[14] = tested on: MYC-driven T-ALL model; experiment: MYC-driven T-ALL / lymphoma model, Luc-labeled cells transplanted into NSG mice; format: in vivo
[15] = Table 3, read-out: IC50 Myc OFF
[16] = Table 3, read-out: IC50 Reporter assay
[17] = Homo sapiens, HEK-293T, HEK293T cells, 16 hours, Table 2, read-out: c-Myc reporter assay IC50
[18] = Homo sapiens, HEK-293T, read-out: IC50 value in Myc reporter assay

IC50 ([3]; HEK293T cells, 16 hours, Table 2, read-out: c-Myc reporter assay IC50): 4.28 µM | IC50 ([3]; Table 3, listed as 15^b, read-out: IC50 Reporter assay): 4.74 µM | IC50 ([3]; Table 3, listed as 15^c, read-out: IC50 Reporter assay): 4.77 µM | IC50 [3, 16]: 11.7 µM
SMILES: O=C1N(CCS(=O)(=O)c2ccccc2)Cc2ccccc2[C@@H]2OC(c3ccc(OCCCO)cc3)=N[C@]12Cc1ccccc1 (single isomer, unassigned) [15^a]
IC50 ([1]; Table 3, listed as 15^b, read-out: IC50 Myc ON): 8.49 µM | IC50 ([1]; Table 3, listed as 15^c, read-out: IC50 Myc ON): 16.6 µM | IC50 ([1]; Table 3, read-out: IC50 Myc ON): 14.5 µM | IC50 [2, 15]: > 50 µM

solubility ([5]; Aqueous solubility (simulated gastric fluid)): 51.2 µM (≈ 31.3 µg/mL) | solubility ([5]; aqueous buffer, Aqueous solubility (PBS, pH 7.4)): 9.2 µM (≈ 5.62 µg/mL) | solubility ([5]; fassgf or other biorelevant, Aqueous solubility (simulated intestinal fluid)): 200 µM (≈ 122 µg/mL) | half-life [6]: 21 min | IC50 [3, 17]: 1.99 µM | IC50 [3, 18]: 2.77 µM
SMILES: O=C1N(CCS(=O)(=O)c2ccccc2)Cc2ccccc2[C@@H]2OC(c3ccc(OCCCO)cc3)=N[C@]12Cc1ccccc1 [Compound 1]
IC50 ([1]; Homo sapiens, P493-6, CELL TITER GLO, Table 2, read-out: P493-6 Myc ON Viability in cells): 6.8 µM | Selectivity for cells expressing Myc over non-Myc expressing cells ([1]; P493-6, Myc ON vs. Myc OFF (doxycycline)): demonstrated a selectivity for cells expressing Myc | Effect on cell viability [4]: demonstrated an effect in cell viability | IC50 ([2]; Homo sapiens, P493-6, CELL TITER GLO, Table 2, read-out: P493-6 Myc OFF Viability in cells): 58.1 µM

IC50 [3, 16]: > 50 µM
SMILES: O=C1NCc2ccccc2[C@@H]2OC(c3ccccc3)=N[C@H]12 [Compound 1a]

IC50 [3, 16]: 16.8 µM
SMILES: O=C1NCc2ccccc2[C@@H]2OC(c3ccccc3)=N[C@]12Cc1ccccc1 [Compound 2a]
IC50 ([1]; Table 3, read-out: IC50 Myc ON): > 50 µM | IC50 [2, 15]: > 50 µM

IC50 [3, 16]: 6.19 µM
SMILES: O=C1N(CCS(=O)(=O)c2ccccc2)Cc2ccccc2[C@@H]2OC(c3ccccc3)=N[C@]12Cc1ccccc1 [Compound 3a]
IC50 ([1]; Table 3, read-out: IC50 Myc ON): 11.4 µM | IC50 [2, 15]: > 50 µM

IC50 [3, 16]: 7.67 µM
SMILES: C=CCN1Cc2ccccc2[C@@H]2OC(c3ccccc3)=N[C@]2(Cc2ccccc2)C1=O [Compound 4a]
IC50 ([1]; Table 3, read-out: IC50 Myc ON): 31.8 µM | IC50 [2, 15]: > 50 µM

IC50 [3, 17]: 5.38 µM | IC50 [3, 18]: 5.4 µM
SMILES: O=C(CCCCC1SCC2NC(=O)NC21)NCCOCCOCCNC(=O)OCCCOc1ccc(C2=N[C@]3(Cc4ccccc4)C(=O)N(CCS(=O)(=O)c4ccccc4)Cc4ccccc4[C@@H]3O2)cc1 (stereo partly drawn) [Compound 5]

IC50 [3, 17]: 4.67 µM
SMILES: COC(=O)[C@@]1(Cc2ccccc2)N=C(c2ccccc2)O[C@H]1c1ccccc1CN=[N+]=[N-] [Compound 6, Methyl (4S,5S)-5-(2-(azidomethyl)phenyl)-4-benzyl-2-phenyl-4,5-dihydrooxazole-4-carboxylate]

IC50 [3, 16]: 3.38 µM
SMILES: CCOC(=O)CN1Cc2ccccc2[C@@H]2OC(c3ccccc3)=N[C@]2(Cc2ccccc2)C1=O [Compound 7a]
IC50 ([1]; Table 3, read-out: IC50 Myc ON): 39.3 µM | IC50 [2, 15]: > 50 µM

IC50 [3, 16]: > 50 µM
SMILES: O=C(O)CN1Cc2ccccc2[C@@H]2OC(c3ccccc3)=N[C@]2(Cc2ccccc2)C1=O [Compound 8a]
IC50 ([1]; Table 3, read-out: IC50 Myc ON): > 50 µM | IC50 [2, 15]: > 50 µM

IC50 [3, 16]: 2.15 µM
SMILES: O=C1N(CCO)Cc2ccccc2[C@@H]2OC(c3ccccc3)=N[C@]12Cc1ccccc1 [Compound 10a]

IC50 [3, 16]: 10.1 µM
SMILES: C#CCNC(=O)CN1Cc2ccccc2[C@@H]2OC(c3ccccc3)=N[C@]2(Cc2ccccc2)C1=O [Compound 11a]

IC50 [3, 16]: 18.7 µM
SMILES: C#CCN(CC(=O)NCCNC(=O)CN1Cc2ccccc2[C@@H]2OC(c3ccccc3)=N[C@]2(Cc2ccccc2)C1=O)C(=O)CCC1(C)N=N1 [Compound 12a]

Induced dimerization of the Max homodimer [12]: 9.9%
SMILES: O=C1N(CCS(=O)(=O)c2ccccc2)Cc2ccccc2[C@@H]2OC(c3ccccc3)=N[C@]12Cc1ccccc1 [KI-MS2-008]
Disruption of c-Myc/Max heterodimer (EMSA) [7]: does not disrupt the c-Myc/Max heterodimer | Myc transcript levels [8]: decreases Myc transcript levels | IC50 [9]: 18.7 µM | Max homodimer binding to DNA (EMSA) [10]: dose-dependent increase of Max homodimer binding to DNA | IC50 [11]: 51.1 µM | Myc protein levels [13]: decreases Myc protein levels | Tumor volume [14]: impacts tumor volume
